From ChEMBL document CHEMBL1127614, “2,6-Disubstituted aryl carboxylic acids, leaving groups "par excellence" for benzisothiazolone inhibitors of human leukocyte elastase” (J Med Chem, 1994)

How the values were obtained:
Neutrophil elastase = target: T1, Neutrophil elastase (Homo sapiens, UniProt P08246); experiment: In vitro inhibition constant of human leukocyte elastase.
T1 sequence (P08246 whole entry): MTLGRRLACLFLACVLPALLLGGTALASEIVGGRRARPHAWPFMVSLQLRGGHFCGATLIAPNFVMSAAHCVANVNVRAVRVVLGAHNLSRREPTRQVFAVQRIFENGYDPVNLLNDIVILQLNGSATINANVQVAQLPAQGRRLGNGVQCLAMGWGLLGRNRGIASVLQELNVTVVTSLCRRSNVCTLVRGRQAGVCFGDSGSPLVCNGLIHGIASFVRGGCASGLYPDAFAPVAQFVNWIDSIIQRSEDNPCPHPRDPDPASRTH

Cricetinae gen. sp. = experiment: In Vivo evaluation of the Compound for the percentage inhibition of HLE at 60 mg/kg dose by intravenous administration; format: functional, Cricetulus griseus

| SMILES | Ki (Neutrophil elastase) [nM] | inhibition in vivo at 60 mg/kg (Cricetinae gen. sp.) [%] |
| --- | --- | --- |
| CC(C)c1cccc2c1C(=O)N(COC(=O)c1c(Cl)cccc1Cl)S2(=O)=O | 0.03 | 47 |
| O=C(OCN1C(=O)c2ccccc2S1(=O)=O)c1ccccc1 | 31 | – |
| O=C(OCN1C(=O)c2c(-c3ccccc3)cccc2S1(=O)=O)c1c(Cl)cccc1Cl | 1 | – |
| CCc1cccc2c1C(=O)N(COC(=O)c1c(Cl)cccc1Cl)S2(=O)=O | 0.17 | – |
| CC(=O)OCN1C(=O)c2ccccc2S1(=O)=O | 102 | – |
| O=C(OCN1C(=O)c2ccccc2S1(=O)=O)c1c(C(F)(F)F)cccc1C(F)(F)F | 37 | – |
| CC(=O)Nc1cccc(Cl)c1C(=O)OCN1C(=O)c2ccccc2S1(=O)=O | 18 | – |
| COc1cccc(OC)c1C(=O)OCN1C(=O)c2ccccc2S1(=O)=O | 8 | – |
| O=C(OCN1C(=O)c2ccccc2S1(=O)=O)c1c(Br)cccc1Br | 8.5 | – |
| O=C(OCN1C(=O)c2ccccc2S1(=O)=O)c1c(F)cccc1F | 8 | – |
| Cc1cccc(C)c1C(=O)OCN1C(=O)c2ccccc2S1(=O)=O | 4 | – |
| Cc1cccc2c1C(=O)N(COC(=O)c1c(Cl)cccc1Cl)S2(=O)=O | 2 | – |
| CC(C)(C)c1cccc2c1C(=O)N(COC(=O)c1c(Cl)cccc1Cl)S2(=O)=O | 26 | – |
| CCC(C)c1cccc2c1C(=O)N(COC(=O)c1c(Cl)cccc1Cl)S2(=O)=O (stereo not given) | 0.06 | – |
